“And” between values parts separate entries of the source, which are not always exact repeats. Equal values may be shown once.
Assays:
CB2R-V261^6.51L = CB2R-V261^6.51L (Homo sapiens, UniProt P34972, V261L); assay: [35S]GTPγS assay, CB2R V261L mutant; assay type: biochemical; settings: for [35S]GTPγS binding: V2616.51L, individual replicates
hCB1R WT = hCB1R WT (Homo sapiens, UniProt P21554); assay: [3H]CP55,940 displacement assay, CB1R WT; assay type: binding
CB1R-L359^6.51V = CB1R-L359^6.51V (Homo sapiens, UniProt P21554, L359V); assay: [35S]GTPγS assay, CB1R L359V mutant; assay type: biochemical; settings: CB1R L359V; 10 µM agonist
Sequence of CB1R-L359^6.51V (P21554 whole entry L359V): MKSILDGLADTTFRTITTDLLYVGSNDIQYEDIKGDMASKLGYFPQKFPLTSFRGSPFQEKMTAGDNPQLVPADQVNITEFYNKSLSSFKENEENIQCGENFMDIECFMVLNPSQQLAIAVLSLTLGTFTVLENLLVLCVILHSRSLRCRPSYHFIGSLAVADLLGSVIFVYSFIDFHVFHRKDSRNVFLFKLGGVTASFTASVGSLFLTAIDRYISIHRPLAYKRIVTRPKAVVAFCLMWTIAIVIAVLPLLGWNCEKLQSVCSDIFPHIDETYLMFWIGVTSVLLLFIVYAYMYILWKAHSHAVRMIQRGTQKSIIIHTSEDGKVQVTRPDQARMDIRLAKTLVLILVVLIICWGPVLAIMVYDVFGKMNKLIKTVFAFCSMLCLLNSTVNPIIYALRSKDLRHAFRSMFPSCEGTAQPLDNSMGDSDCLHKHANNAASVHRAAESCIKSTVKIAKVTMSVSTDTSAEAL

CB2R-F117^3.36A = CB2R-F117^3.36A (Homo sapiens, UniProt P34972, F117A); assay: [35S]GTPγS assay, CB2R F117A mutant; assay type: biochemical
Sequence of CB2R-F117^3.36A (P34972 whole entry F117A): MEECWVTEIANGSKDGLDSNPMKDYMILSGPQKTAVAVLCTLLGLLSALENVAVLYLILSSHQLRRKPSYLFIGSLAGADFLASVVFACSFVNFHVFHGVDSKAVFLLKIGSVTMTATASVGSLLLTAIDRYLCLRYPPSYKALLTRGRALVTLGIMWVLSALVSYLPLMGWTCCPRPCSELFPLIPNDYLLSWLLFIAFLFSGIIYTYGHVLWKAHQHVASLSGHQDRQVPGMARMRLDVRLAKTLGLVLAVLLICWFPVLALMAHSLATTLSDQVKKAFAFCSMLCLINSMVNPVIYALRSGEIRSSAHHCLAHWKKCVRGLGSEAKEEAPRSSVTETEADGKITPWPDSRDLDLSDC

CB2R-I110^3.29A = CB2R-I110^3.29A (Homo sapiens, UniProt P34972, I110A); assay: [35S]GTPγS assay, CB2R I110A mutant; assay type: biochemical; settings: for [35S]GTPγS binding: I1103.29A, individual replicates
Sequence of CB2R-I110^3.29A (P34972 whole entry I110A): as the sequence (P34972 whole entry F117A) above, with I110A, A117F counted along it

[1] = system: chronic abdominal pain associated with Crohn’s disease; settings: 14 patients with chronic abdominal pain associated with Crohn’s disease; cited from earlier work
CB1R-H270^ECL2L = CB1R-H270^ECL2L (Homo sapiens, UniProt P21554, H270L); assay: [35S]GTPγS assay, CB1R H270L mutant; assay type: biochemical; settings: CB1R H270L; 10 µM agonist
Sequence of CB1R-H270^ECL2L (P21554 whole entry H270L): as the sequence (P21554 whole entry L359V) above, with H270L, V359L counted along it

CB1R I267ECL2L = CB1R I267ECL2L (Homo sapiens, UniProt P21554, I267L); assay: [3H]CP55,940 displacement assay, CB1R I267L mutant; assay type: binding
Sequence of CB1R I267ECL2L (P21554 whole entry I267L): as the sequence (P21554 whole entry L359V) above, with I267L, V359L counted along it

CB2R-S285^7.39A = CB2R-S285^7.39A (Homo sapiens, UniProt P34972, S285A); assay: [35S]GTPγS assay, CB2R S285A mutant; assay type: biochemical; settings: S285A mutant; at 10 µM compared to WT; read-out: Emax (%)
Sequence of CB2R-S285^7.39A (P34972 whole entry S285A): as the sequence (P34972 whole entry F117A) above, with A117F, S285A counted along it

CB2R-I110^3.29L = CB2R-I110^3.29L (Homo sapiens, UniProt P34972, I110L); assay: [3H]CP55,940 displacement assay, CB2R I110L mutant; assay type: binding; settings: I1103.29L, individual replicates
Sequence of CB2R-I110^3.29L (P34972 whole entry I110L): as the sequence (P34972 whole entry F117A) above, with I110L, A117F counted along it

Sequence of CB2R-V261^6.51L (P34972 whole entry V261L): as the sequence (P34972 whole entry F117A) above, with A117F, V261L counted along it
Sequence of hCB1R WT (P21554 whole entry): as the sequence (P21554 whole entry L359V) above, with V359L counted along it

Compound: CC(C)(C)[C@@H](CO)NC(=O)c1nn(-c2c[n+]([O-])ccn2)c2c1C[C@@H]1C[C@H]21 [APD371]
- drop in potency compared to WT (CB2R-V261^6.51L; V261L mutant vs WT, [35S]GTPγS): 10 fold
- Emax (CB2R-V261^6.51L; V261L mutant, at 10 µM compared to WT, read-out: Emax (%)): 6 ± 2%
- [35S]GTPγS binding (CB2R-V261^6.51L; log [ligand] (M) -5): 2.52 percentage of WT and 5.75 percentage of WT and 9.01 percentage of WT
- [35S]GTPγS binding (CB2R-V261^6.51L; log [ligand] (M) -6): -3.29 percentage of WT and 5.08 percentage of WT and 17.22 percentage of WT
- [35S]GTPγS binding (CB2R-V261^6.51L; log [ligand] (M) -7): 3.77 percentage of WT and -3.23 percentage of WT and 7.12 percentage of WT
- [35S]GTPγS binding (CB2R-V261^6.51L; log [ligand] (M) -8): -13.41 percentage of WT and -9.01 percentage of WT and -7.07 percentage of WT
- [35S]GTPγS binding (CB2R-V261^6.51L; log [ligand] (M) -9): -3.12 percentage of WT and -6.34 percentage of WT and -8.82 percentage of WT
- [35S]GTPγS binding (CB2R-V261^6.51L; log [ligand] (M) -10): 6.63 percentage of WT and -9.97 percentage of WT and -1.94 percentage of WT
- percentage specific [3H]CP55,940 binding (hCB1R WT; CB1R - WT, 10 µM ligand, replicates 1-3): 104.41 percentage and 153.95 percentage and 99.24 percentage
- Displacement (%) of [3H]CP55,940 (hCB1R WT; CB1R WT, 10 µM compound): -19 ± 17%
- Agonist-mediated activation (CB1R-L359^6.51V): 1.1 ± 0.1 fold over its basal
- Emax (CB2R-F117^3.36A; F117A mutant, at 10 µM compared to WT, read-out: Emax (%)): 2 ± 6%
- [35S]GTPγS binding (CB2R-F117^3.36A; F1173.36A, log [ligand] (M) -5, individual replicates): -3.66 percentage of WT and 14.36 percentage of WT and -4.64 percentage of WT
- Emax (CB2R-I110^3.29A; I110A mutant, at 10 µM compared to WT, read-out: Emax (%)): 28 ± 9%
- [35S]GTPγS binding (CB2R-I110^3.29A; log [ligand] (M) -5): 8.02 percentage of WT and 49.60 percentage of WT and 23.20 percentage of WT and 29.78 percentage of WT
- [35S]GTPγS binding (CB2R-I110^3.29A; log [ligand] (M) -6): -6.90 percentage of WT and 31.60 percentage of WT and 8.00 percentage of WT and 14.76 percentage of WT
- [35S]GTPγS binding (CB2R-I110^3.29A; log [ligand] (M) -7): -11.72 percentage of WT and 23.80 percentage of WT and 1.10 percentage of WT and 21.50 percentage of WT
- [35S]GTPγS binding (CB2R-I110^3.29A; log [ligand] (M) -8): -18.83 percentage of WT and 1.40 percentage of WT and -5.80 percentage of WT and 9.14 percentage of WT
- [35S]GTPγS binding (CB2R-I110^3.29A; log [ligand] (M) -9): -17.87 percentage of WT and 6.80 percentage of WT and -8.60 percentage of WT and -1.19 percentage of WT
- [35S]GTPγS binding (CB2R-I110^3.29A; log [ligand] (M) -10): -16.57 percentage of WT and -10.00 percentage of WT and -2.40 percentage of WT and -10.68 percentage of WT
- abdominal pain scores [1]: improvement
- adverse events [1]: mild-to-moderate adverse events
- Agonist-mediated activation (CB1R-H270^ECL2L): 1.1 ± 0.0 fold over its basal
- percentage specific [3H]CP55,940 binding (CB1R I267ECL2L; CB1R I267ECL2L, 10 µM ligand, replicates 1-3): 153.09 percentage and 95.47 percentage and 123.57 percentage
- Displacement (%) of [3H]CP55,940 (CB1R I267ECL2L; CB1R I267L, 10 µM compound): -24 ± 17%
- Emax (CB2R-S285^7.39A): 49 ± 6%
- percentage specific [3H]CP55,940 binding (CB2R-I110^3.29L; log [ligand] (M) -5): 4.49% and 2.95% and 7.70%
- percentage specific [3H]CP55,940 binding (CB2R-I110^3.29L; log [ligand] (M) -6): 22.45% and 22.51% and 25.37%
- percentage specific [3H]CP55,940 binding (CB2R-I110^3.29L; log [ligand] (M) -7): 63.92% and 66.51% and 68.51%
- percentage specific [3H]CP55,940 binding (CB2R-I110^3.29L; log [ligand] (M) -8): 89.64% and 87.54% and 115.07%
- percentage specific [3H]CP55,940 binding (CB2R-I110^3.29L; log [ligand] (M) -9): 93.11% and 90.99% and 98.90%
- percentage specific [3H]CP55,940 binding (CB2R-I110^3.29L; log [ligand] (M) -10): 86.70% and 95.29% and 99.01%

— article PMC10017709, “Structural basis of selective cannabinoid CB2 receptor activation” (Nature Communications, 2023)
